Laboratory results: ChEMBL document CHEMBL1201862, “PubChem BioAssay data set” (2004)
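Grown in 96-well plates, cells were treated for 48 hours with each compound at five concentrations. Insufficient inhibition: endpoint recorded as highest concentration tested. GI50 marks 50% less growth.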 Active and inactive are the calls of the source. No stated cut-off is given here; in the data, active = GI50 up to about 1.1 µM and inactive = higher.

Legend:
Experiment in all cases: NCI-60 cell line screen, 48 h
OVCAR-8 = tested on: OVCAR-8
786-0 = tested on: 786-0
SN12C = tested on: SN12C
KM12 = tested on: KM12
TK-10 = tested on: TK-10
RPMI-8226 = tested on: RPMI-8226
SNB-19 = tested on: SNB-19
UO-31 = tested on: UO-31
HOP-92 = tested on: HOP-92
NCI-H226 = tested on: NCI-H226
HOP-62 = tested on: HOP-62
HCC 2998 = tested on: HCC 2998
NCI-H460 = tested on: NCI-H460
OVCAR-3 = tested on: OVCAR-3
Malme-3M = tested on: Malme-3M
CAKI-1 = tested on: CAKI-1

Row | Structure (SMILES) | GI50 (OVCAR-8) | GI50 (786-0) | GI50 (SN12C) | GI50 (KM12) | GI50 (TK-10) | GI50 (RPMI-8226) | GI50 (SNB-19) | GI50 (UO-31) | GI50 (HOP-92) | GI50 (NCI-H226) | GI50 (HOP-62) | GI50 (HCC 2998) | GI50 (NCI-H460) | GI50 (OVCAR-3) | GI50 (Malme-3M) | GI50 (CAKI-1)
1 | Cc1cc(N(CCC#N)CCC#N)ccc1/C=C1\N=C(c2cc([N+](=O)[O-])ccc2Cl)N(c2cccc(Cl)c2)C1=O | > 100 µM (inactive) | > 100 µM (inactive) | > 100 µM (inactive) | > 100 µM (inactive) | > 100 µM (inactive) | > 100 µM (inactive) | < 0.01 µM (active) | > 100 µM (inactive) | > 100 µM (inactive) | > 100 µM (inactive) | > 100 µM (inactive) | > 100 µM (inactive) | > 100 µM (inactive) | > 100 µM (inactive) | > 100 µM (inactive) | 3.08 µM (inactive)
2 | O=c1cc(-c2ccccc2)oc2cc(OCCSCCCCCCCCCCSCCOc3ccc4c(=O)cc(-c5ccccc5)oc4c3)ccc12 | > 100 µM (inactive) | 73.5 µM (inactive) | > 100 µM (inactive) | > 100 µM (inactive) | > 100 µM (inactive) | > 100 µM (inactive) | 51.2 µM (inactive) | > 100 µM (inactive) | 43.5 µM (inactive) | – | 51.9 µM (inactive) | > 100 µM (inactive) | – | > 100 µM (inactive) | > 100 µM (inactive) | > 100 µM (inactive)
3 | COC1/C(=C\C(=O)OC(C)(C)C)c2ccccc2N1C(C)=O (stereo unspecified) | > 100 µM (inactive) | > 100 µM (inactive) | > 100 µM (inactive) | 9.53 µM (inactive) | – | 34.8 µM (inactive) | > 100 µM (inactive) | > 100 µM (inactive) | – | – | > 100 µM (inactive) | > 100 µM (inactive) | > 100 µM (inactive) | > 100 µM (inactive) | – | > 100 µM (inactive)
4 | COC(=O)/C(=C/c1ccc(OC)cc1)NC(=O)c1ccccc1 | > 100 µM (inactive) | > 100 µM (inactive) | > 100 µM (inactive) | > 100 µM (inactive) | > 100 µM (inactive) | > 100 µM (inactive) | > 100 µM (inactive) | > 100 µM (inactive) | > 100 µM (inactive) | > 100 µM (inactive) | – | > 100 µM (inactive) | > 100 µM (inactive) | – | > 100 µM (inactive) | > 100 µM (inactive)
5 | O=C1/C(=C\c2ccccc2)C2/C(=C\c3ccccc3)C(=O)/C(=C\c3ccccc3)C2/C1=C\c1ccccc1 (stereo unspecified) | 0.412 µM (active) | 1.22 µM (inactive) | 2.01 µM (inactive) | 1.42 µM (inactive) | 3.87 µM (inactive) | 0.336 µM (active) | – | 1.7 µM (inactive) | 1.69 µM (inactive) | – | 2.4 µM (inactive) | 1.29 µM (inactive) | 1.9 µM (inactive) | 1.73 µM (inactive) | 1.77 µM (inactive) | 2.67 µM (inactive)
6 | Nc1ncnc2c1ncn2C1CC(OCc2ccccc2[N+](=O)[O-])C(CO)O1 (stereo unspecified) | 23.8 µM (inactive) | 43.4 µM (inactive) | 24.3 µM (inactive) | 20 µM (inactive) | 30.8 µM (inactive) | 14.9 µM (inactive) | 46.1 µM (inactive) | 17 µM (inactive) | 21.4 µM (inactive) | 11.8 µM (inactive) | 24.3 µM (inactive) | 28.8 µM (inactive) | 20.1 µM (inactive) | 30.1 µM (inactive) | 20 µM (inactive) | –
7 | COc1ccc(/C=c2/sc3n(c2=O)NC(c2ccc(Cl)cc2)NN=3)cc1 (stereo unspecified) | > 100 µM (inactive) | > 100 µM (inactive) | > 100 µM (inactive) | > 100 µM (inactive) | > 100 µM (inactive) | – | > 100 µM (inactive) | > 100 µM (inactive) | 46.2 µM (inactive) | > 100 µM (inactive) | – | > 100 µM (inactive) | > 100 µM (inactive) | > 100 µM (inactive) | > 100 µM (inactive) | > 100 µM (inactive)
8 | CCCCCC(=O)Cc1cc(OC)cc2c1C(=O)Oc1cc(O)c(C(=O)O)c(CC(=O)CCCCC)c1O2 | 47.1 µM (inactive) | 18.9 µM (inactive) | > 10 µM (inactive) | 46.5 µM (inactive) | 63.4 µM (inactive) | 42 µM (inactive) | – | – | – | > 100 µM (inactive) | > 100 µM (inactive) | 48.5 µM (inactive) | 52.5 µM (inactive) | 24 µM (inactive) | 51.4 µM (inactive) | > 100 µM (inactive)
9 | C=CCN1/C(=C2\SC(=S)N(c3ccc(C)cc3)C2=O)Sc2c1nc[nH]c2=O | > 100 µM (inactive) | > 100 µM (inactive) | 77.1 µM (inactive) | – | > 100 µM (inactive) | > 100 µM (inactive) | > 100 µM (inactive) | > 100 µM (inactive) | > 100 µM (inactive) | > 100 µM (inactive) | > 100 µM (inactive) | – | > 100 µM (inactive) | > 100 µM (inactive) | 78.2 µM (inactive) | > 100 µM (inactive)
